This data set can be described thus: activity coefficient (dimensionless); of the first substance listed, at infinite dilution; xn = mol fraction of the nth substance listed. The settings on record: 101 kPa, Liquid, Chromatography, x1 = 0.

SMILES strings stand for the structures. ± gives the expanded uncertainty stated by the source.

Activity coefficient data for 34 molecules are collected here from the NIST ThermoML archive (doi:10.1021/je200195q).

For `C1COCCO1` [1,4-dioxane] + CCCCn1cc[n+](C)c1.O=S(=O)([N-]S(=O)(=O)C(F)(F)C(F)(F)F)C(F)(F)C(F)(F)F, the activity coefficient (322.55 K) came out at 0.429 ± 0.035, the activity coefficient (342.75 K) was 0.607 ± 0.042 and the activity coefficient (362.65 K) came to 0.576 ± 0.041.
In the case of `CCC(C)=O` [butanone] + CCCCCCCCCCn1cc[n+](CCCCCCCCCC)c1C.O=S(=O)([N-]S(=O)(=O)C(F)(F)F)C(F)(F)F, the activity coefficient by setting is: (323.1 K) 0.318 ± 0.031; (333.15 K) 0.292 ± 0.031; (343.15 K) 0.264 ± 0.03.
Take `c1ccsc1` [thiophene] + CCn1cc[n+](C)c1.CS(=O)(=O)[O-]: the activity coefficient is, setting by setting: (312.55 K) 1.87 ± 0.13; (322.45 K) 1.91 ± 0.13; (332.45 K) 1.95 ± 0.13.
Consider `CCCCCCCCCCCCCC` [tetradecane] + CCn1cc[n+](C)c1.CS(=O)(=O)[O-], for which the activity coefficient turned out to be 4070 ± 280 (312.55 K), 4000 ± 280 (322.45 K) and 3830 ± 260 (332.45 K).
Turning to `C1CCCCC1` [cyclohexane] + CCCCCCCCCCn1cc[n+](CCCCCCCCCC)c1C.O=S(=O)([N-]S(=O)(=O)C(F)(F)F)C(F)(F)F, the activity coefficient by setting is: (323.1 K) 1.32 ± 0.085; (333.15 K) 1.28 ± 0.083; (343.15 K) 1.26 ± 0.081.
Take `CC(C)CO` [2-methyl-1-propanol] + CCCCn1cc[n+](C)c1.O=S(=O)([N-]S(=O)(=O)C(F)(F)C(F)(F)F)C(F)(F)C(F)(F)F: the activity coefficient by setting is: (322.55 K) 2.26 ± 0.15; (342.75 K) 1.84 ± 0.12; (362.65 K) 1.57 ± 0.1.
Consider `CC(C)CC(C)(C)C` [2,2,4-trimethylpentane] + CCn1cc[n+](C)c1.CS(=O)(=O)[O-], for which the activity coefficient by setting is: (312.55 K) 445 ± 31; (322.45 K) 387 ± 27; (332.45 K) 334 ± 23.
`CCCO` [propan-1-ol] + CCCCCCCCCCn1cc[n+](CCCCCCCCCC)c1C.O=S(=O)([N-]S(=O)(=O)C(F)(F)F)C(F)(F)F: the activity coefficient worked out at 1.31 ± 0.085 (323.1 K), 1.16 ± 0.074 (333.15 K) and 1.06 ± 0.067 (343.15 K).
On the same counts, the results for `ClC(Cl)Cl` [trichloromethane] + CCCCCCCCCCn1cc[n+](CCCCCCCCCC)c1C.O=S(=O)([N-]S(=O)(=O)C(F)(F)F)C(F)(F)F are 0.374 ± 0.033, 0.395 ± 0.034 and 0.402 ± 0.034.
In the case of `CC(C)OC(C)C` [diisopropyl ether] + CCCCCC[n+]1ccn(C)c1.FC(F)(F)C(F)(F)[P-](F)(F)(F)(C(F)(F)C(F)(F)F)C(F)(F)C(F)(F)F, the activity coefficient runs as follows: (312.8 K) 1.59 ± 0.1; (332.85 K) 1.7 ± 0.11; (354.65 K) 1.72 ± 0.12.
On the same counts, the results for `CC#N` [acetonitrile] + CCCCCC[n+]1ccn(C)c1.FC(F)(F)C(F)(F)[P-](F)(F)(F)(C(F)(F)C(F)(F)F)C(F)(F)C(F)(F)F are 0.295 ± 0.031, 0.295 ± 0.031 and 0.292 ± 0.031.
In the case of `CC(C)CC(C)(C)C` [2,2,4-trimethylpentane] + CCCCn1cc[n+](C)c1.O=S(=O)([N-]S(=O)(=O)C(F)(F)C(F)(F)F)C(F)(F)C(F)(F)F, the activity coefficient is, setting by setting: (322.55 K) 13.3 ± 0.91; (342.75 K) 11.7 ± 0.8; (362.65 K) 10.5 ± 0.72.
With `CCC[N+](=O)[O-]` [1-nitropropane] + CCCCn1cc[n+](C)c1.O=S(=O)([N-]S(=O)(=O)C(F)(F)C(F)(F)F)C(F)(F)C(F)(F)F, the activity coefficient came to 0.769 ± 0.05 (322.55 K), 0.821 ± 0.053 (342.75 K) and 0.756 ± 0.05 (362.65 K).
On the same counts, the results for `CCC(C)=O` [butanone] + CCCCn1cc[n+](C)c1.O=S(=O)([N-]S(=O)(=O)C(F)(F)C(F)(F)F)C(F)(F)C(F)(F)F are 0.453 ± 0.036, 0.389 ± 0.034 and 0.351 ± 0.032.
On the same counts, the results for `CCCCCCCCC` [nonane] + CCCCn1cc[n+](C)c1.O=S(=O)([N-]S(=O)(=O)C(F)(F)C(F)(F)F)C(F)(F)C(F)(F)F are 31.5 ± 2.2, 26 ± 1.8 and 21.8 ± 1.5.
For the molecule `CCCCCCC` [heptane] + CCn1cc[n+](C)c1.CS(=O)(=O)[O-], the activity coefficient is 432 ± 30 (312.55 K), 2230 ± 150 (322.45 K) and 497 ± 34 (332.45 K).
For the molecule `CC(C)OC(C)C` [diisopropyl ether] + CCCCn1cc[n+](C)c1.O=S(=O)([N-]S(=O)(=O)C(F)(F)C(F)(F)F)C(F)(F)C(F)(F)F, the activity coefficient by setting is: (322.55 K) 3.46 ± 0.24; (342.75 K) 3.46 ± 0.23; (362.65 K) 3.43 ± 0.23.
For the molecule `CC(C)OC(C)C` [diisopropyl ether] + CCn1cc[n+](C)c1.CS(=O)(=O)[O-], the activity coefficient runs as follows: (312.55 K) 84.5 ± 5.8; (322.45 K) 74.2 ± 5.1; (332.45 K) 67.7 ± 4.6.
Take `CC1CCCCC1` [methylcyclohexane] + CCCCCC[n+]1ccn(C)c1.FC(F)(F)C(F)(F)[P-](F)(F)(F)(C(F)(F)C(F)(F)F)C(F)(F)C(F)(F)F: the activity coefficient (312.8 K) was 5.89 ± 0.4, the activity coefficient (332.85 K) was 5.23 ± 0.36 and the activity coefficient (354.65 K) was 4.49 ± 0.31.
On the same counts, the results for `CCc1ccccc1` [ethylbenzene] + CCCCCC[n+]1ccn(C)c1.FC(F)(F)C(F)(F)[P-](F)(F)(F)(C(F)(F)C(F)(F)F)C(F)(F)C(F)(F)F are 0.956 ± 0.06, 1.03 ± 0.065 and 1.04 ± 0.066.
Take `c1ccncc1` [pyridine] + CCCCCCCCCCn1cc[n+](CCCCCCCCCC)c1C.O=S(=O)([N-]S(=O)(=O)C(F)(F)F)C(F)(F)F: the activity coefficient reads like this: (323.1 K) 0.328 ± 0.032; (333.15 K) 0.331 ± 0.032; (343.15 K) 0.334 ± 0.032.
The like results for `ClC(Cl)(Cl)Cl` [tetrachloromethane] + CCCCCCCCCCn1cc[n+](CCCCCCCCCC)c1C.O=S(=O)([N-]S(=O)(=O)C(F)(F)F)C(F)(F)F were, in that order, 0.776 ± 0.051, 0.777 ± 0.051 and 0.777 ± 0.051.
The like results for `ClCCl` [dichloromethane] + CCCCCCCCCCn1cc[n+](CCCCCCCCCC)c1C.O=S(=O)([N-]S(=O)(=O)C(F)(F)F)C(F)(F)F were, in that order, 0.33 ± 0.032, 0.341 ± 0.032 and 0.351 ± 0.032.
Regarding `c1ccccc1` [benzene] + CCCCn1cc[n+](C)c1.O=S(=O)([N-]S(=O)(=O)C(F)(F)C(F)(F)F)C(F)(F)C(F)(F)F, the activity coefficient reads like this: (322.55 K) 1.01 ± 0.063; (342.75 K) 1.02 ± 0.064; (362.65 K) 1.03 ± 0.065.
In the case of `CC(C)OC(C)C` [diisopropyl ether] + CCCCCCCCCCn1cc[n+](CCCCCCCCCC)c1C.O=S(=O)([N-]S(=O)(=O)C(F)(F)F)C(F)(F)F, the activity coefficient reads like this: (323.1 K) 1.12 ± 0.071; (333.15 K) 1.23 ± 0.079; (343.15 K) 1.23 ± 0.079.
Take `CCN(CC)CC` [triethylamine] + CCCCCCCCCCn1cc[n+](CCCCCCCCCC)c1C.O=S(=O)([N-]S(=O)(=O)C(F)(F)F)C(F)(F)F: the activity coefficient (323.1 K) was 3.67 ± 0.25, the activity coefficient (333.15 K) stood at 3.17 ± 0.22 and the activity coefficient (343.15 K) was 2.86 ± 0.2.
On the same counts, the results for `C#CCCCCC` [1-heptyne] + CCCCCCCCCCn1cc[n+](CCCCCCCCCC)c1C.O=S(=O)([N-]S(=O)(=O)C(F)(F)F)C(F)(F)F are 1.06 ± 0.067, 1.06 ± 0.067 and 1.06 ± 0.067.
The like results for `C#CCCCC` [1-hexyne] + CCCCCCCCCCn1cc[n+](CCCCCCCCCC)c1C.O=S(=O)([N-]S(=O)(=O)C(F)(F)F)C(F)(F)F were, in that order, 0.925 ± 0.058, 0.917 ± 0.058 and 0.899 ± 0.057.
`Cc1ccccc1C` [1,2-dimethylbenzene] + CCCCCC[n+]1ccn(C)c1.FC(F)(F)C(F)(F)[P-](F)(F)(F)(C(F)(F)C(F)(F)F)C(F)(F)C(F)(F)F: the activity coefficient is 0.888 ± 0.057 (312.8 K), 0.947 ± 0.06 (332.85 K) and 0.957 ± 0.06 (354.65 K).
In the case of `CC1CCCC1` [methylcyclopentane] + CCCCCCCCCCn1cc[n+](CCCCCCCCCC)c1C.O=S(=O)([N-]S(=O)(=O)C(F)(F)F)C(F)(F)F, the activity coefficient worked out at 1.35 ± 0.088 (323.1 K), 1.33 ± 0.086 (333.15 K) and 1.3 ± 0.084 (343.15 K).
Take `Cc1ccccc1C` [1,2-dimethylbenzene] + CCCCCCCCCCn1cc[n+](CCCCCCCCCC)c1C.O=S(=O)([N-]S(=O)(=O)C(F)(F)F)C(F)(F)F: the activity coefficient (323.1 K) is 0.626 ± 0.043, the activity coefficient (333.15 K) worked out at 0.616 ± 0.043 and the activity coefficient (343.15 K) was 0.603 ± 0.042.
As to `CCO` [ethanol] + CCCCCC[n+]1ccn(C)c1.FC(F)(F)C(F)(F)[P-](F)(F)(F)(C(F)(F)C(F)(F)F)C(F)(F)C(F)(F)F, the activity coefficient (312.8 K) was 2.1 ± 0.14, the activity coefficient (332.85 K) came to 1.69 ± 0.11 and the activity coefficient (354.65 K) came out at 1.31 ± 0.085.
`c1ccccc1` [benzene] + CCCCCCCCCCn1cc[n+](CCCCCCCCCC)c1C.O=S(=O)([N-]S(=O)(=O)C(F)(F)F)C(F)(F)F: the activity coefficient was 0.429 ± 0.035 (323.1 K), 0.431 ± 0.035 (333.15 K) and 0.434 ± 0.035 (343.15 K).
`OCC(F)(F)F` [2,2,2-trifluoroethanol] + CCCCCC[n+]1ccn(C)c1.FC(F)(F)C(F)(F)[P-](F)(F)(F)(C(F)(F)C(F)(F)F)C(F)(F)C(F)(F)F: the activity coefficient reads like this: (312.8 K) 0.987 ± 0.062; (332.85 K) 0.891 ± 0.057; (354.65 K) 0.728 ± 0.048.
